Test results published in US4374245A, “8-[3-(6-Fluoro-1,2-benzisoxazol-3-yl)propyl]- 1-phenyl-1,3,8-triazaspiro[4.5]decan-4-one” (Hoechst-Roussel Pharmaceuticals Inc., priority 1982, dated 1983).
Like-named read-outs stand apart in the source and are kept apart here.

Assays:
[1] = test system: apomorphine-induced climbing; assay: climbing mice assay (apomorphine-induced climbing, antipsychotic activity); assay type: in vivo, CK-1 male mice; settings: Mus musculus, ip, read-out: Antipsychotic Activity ED50
[2] = test system: phenyl-para-quinone induced writhes; assay: animal or person; assay type: in vivo, mice; settings: Mus musculus, sc, read-out: Analgesic Activity (ED50)

Row | Compound | ED50 [2] [mg/kg] | further results
1 | O=C(CCCN1CCC(O)(c2ccc(Cl)cc2)CC1)c1ccc(F)cc1 [haloperidol] |  | ED50 [1]: 0.11 mg/kg
2 | CC(C)=CCN1CCC2(C)c3cc(O)ccc3CC1C2C (stereo not shown) [pentazocin] | 1.3 | 
3 | CCC(=O)O[C@](Cc1ccccc1)(c1ccccc1)[C@H](C)CN(C)C [propoxyphene] | 3.9 | 
4 | CCN1CCCC1CNC(=O)c1cc(S(N)(=O)=O)ccc1OC (stereo not shown) [sulpiride] |  | ED50 ([1]; mice, intraperitoneal, 30 minutes prior to apomorphine 1.5 mg/kg subcutaneously, climbing scored at 10, 20 and 30 minutes, linear regression): 4.5 mg/kg
